Data published in patent US12077503B2, “Substituted cyclic amides and their use as herbicides” (FMC CORPORATION, priority 2015, dated 2024).

Assays:
Format in all cases: in vivo
[1] = tested on: redroot pigweed (Amaranthus retroflexus); assay: Test G Pre-Emergence Protocol; details: Amaranthus retroflexus, pre-emergence, 312 h, evaluated after 13 days; for pest or weed control at 15.625 g/ha: 15.625 g ai/ha; for pest or weed control at 15.625 g/ha / pest or weed control at 250 g/ha: read-out: Pigweed, Redroot damage rating (100=total damage to plant; 0=no damage to plant); for pest or weed control at 62.5 g/ha: 62.5 g ai/ha, 100=total damage to plant, 0=no damage to plant, read-out: plant damage rating, Pigweed, Redroot; for pest or weed control at 250 g/ha: 250 g ai/ha
Outline: (§1)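 Test compound in 0.5% Tween 20 acetone/water (50:50) was applied at three rates (15.625, 62.5, 250 g/ha) to soil sown one day earlier. After 13 days plants were scored for injury, where 0 means unaffected and 100 means completely damaged.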

[2] = tested on: giant foxtail (Setaria faberi); assay: Test G Pre-Emergence Protocol; details: Setaria faberi, pre-emergence, 312 h, evaluated after 13 days; for pest or weed control at 15.625 g/ha: 15.625 g ai/ha; for pest or weed control at 15.625 g/ha / pest or weed control at 250 g/ha: read-out: Foxtail, Giant damage rating (100=total damage to plant; 0=no damage to plant); for pest or weed control at 62.5 g/ha: 62.5 g ai/ha, 100=total damage to plant, 0=no damage to plant, read-out: plant damage rating, Foxtail, Giant; for pest or weed control at 250 g/ha: 250 g ai/ha
Outline: as §1

[3] = tested on: barnyardgrass (Echinochloa crus-galli); assay: Test G Pre-Emergence Protocol; details: Echinochloa crus-galli, pre-emergence, 312 h, evaluated after 13 days; for pest or weed control at 15.625 g/ha: 15.625 g ai/ha, read-out: Barnyard grass damage rating (100=total damage to plant; 0=no damage to plant); for pest or weed control at 62.5 g/ha: 62.5 g ai/ha, 100=total damage to plant, 0=no damage to plant, read-out: plant damage rating, Barnyardgrass; for pest or weed control at 250 g/ha: 250 g ai/ha, read-out: Barnyardgrass damage rating (100=total damage to plant; 0=no damage to plant)
Outline: as §1

corn (Zea mays) [4] = assay: Test G Pre-Emergence Protocol; details: Zea mays, pre-emergence, 312 h, evaluated after 13 days; for plant injury at 15.625 g/ha: 15.625 g ai/ha; for plant injury at 15.625 g/ha / plant injury at 250 g/ha: read-out: Corn damage rating (100=total damage to plant; 0=no damage to plant); for plant injury at 62.5 g/ha: 62.5 g ai/ha, 100=total damage to plant, 0=no damage to plant, read-out: plant damage rating, Corn; for plant injury at 250 g/ha: 250 g ai/ha
Outline: as §1

[5] = tested on: ivy-leaved morning glory (Ipomoea hederacea); assay: Test G Pre-Emergence Protocol; details: Ipomoea, pre-emergence, 312 h, evaluated after 13 days; for pest or weed control at 15.625 g/ha: 15.625 g ai/ha, read-out: Morning-glory, Ivy-leaved damage rating (100=total damage to plant; 0=no damage to plant); for pest or weed control at 250 g/ha: 250 g ai/ha, read-out: Morningglory, Ivy-leaved damage rating (100=total damage to plant; 0=no damage to plant)
Outline: as §1

[6] = tested on: velvetleaf (Abutilon theophrasti); assay: Test G Pre-Emergence Protocol; details: Abutilon theophrasti, pre-emergence, 312 h, evaluated after 13 days; for pest or weed control at 15.625 g/ha: 15.625 g ai/ha; for pest or weed control at 15.625 g/ha / pest or weed control at 250 g/ha: read-out: Velvetleaf damage rating (100=total damage to plant; 0=no damage to plant); for pest or weed control at 62.5 g/ha: 62.5 g ai/ha, 100=total damage to plant, 0=no damage to plant, read-out: plant damage rating, Velvetleaf; for pest or weed control at 250 g/ha: 250 g ai/ha
Outline: as §1

[7] = tested on: redroot pigweed (Amaranthus retroflexus); assay: Test G Post-Emergence Protocol; details: Amaranthus retroflexus, post-emergence, 312 h; for pest or weed control at 15.625 g/ha: 15.625 g ai/ha, evaluated after 13 days (100=total damage to plant; 0=no damage to plant), read-out: Pigweed, Redroot damage rating; for pest or weed control at 62.5 g/ha: 62.5 g ai/ha, read-out: Pigweed, Redroot damage rating (100=total damage to plant; 0=no damage to plant); for pest or weed control at 62.5 g/ha / pest or weed control at 250 g/ha: evaluated after 13 days; for pest or weed control at 250 g/ha: 250 g ai/ha, read-out: damage to plant, Pigweed, Redroot (100=total damage to plant; 0=no damage to plant)
Outline: (§2)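 Eight days post-sowing, plants received a spray of test compound (acetone/water 50:50, 0.5% Tween 20) at 15.625, 62.5 or 250 g/ha. Glasshouse regime thereafter: 24/16 °C, 14 h light, 65% humidity. Assessment after 13 days on a 0–100 damage scale.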

[8] = tested on: giant foxtail (Setaria faberi); assay: Test G Post-Emergence Protocol; details: Setaria faberi, post-emergence, 312 h; for pest or weed control at 15.625 g/ha: 15.625 g ai/ha, evaluated after 13 days (100=total damage to plant; 0=no damage to plant), read-out: Foxtail, Giant damage rating; for pest or weed control at 62.5 g/ha: 62.5 g ai/ha, read-out: Foxtail, Giant damage rating (100=total damage to plant; 0=no damage to plant); for pest or weed control at 62.5 g/ha / pest or weed control at 250 g/ha: evaluated after 13 days; for pest or weed control at 250 g/ha: 250 g ai/ha, read-out: damage to plant, Foxtail, Giant (100=total damage to plant; 0=no damage to plant)
Outline: as §2

[9] = tested on: barnyardgrass (Echinochloa crus-galli); assay: Test G Post-Emergence Protocol; details: Echinochloa crus-galli, post-emergence, 312 h; for pest or weed control at 15.625 g/ha: 15.625 g ai/ha, evaluated after 13 days (100=total damage to plant; 0=no damage to plant), read-out: Barnyardgrass damage rating; for pest or weed control at 62.5 g/ha: 62.5 g ai/ha, read-out: Barnyardgrass damage rating (100=total damage to plant; 0=no damage to plant); for pest or weed control at 62.5 g/ha / pest or weed control at 250 g/ha: evaluated after 13 days; for pest or weed control at 250 g/ha: 250 g ai/ha, read-out: damage to plant, Barnyardgrass (100=total damage to plant; 0=no damage to plant)
Outline: as §2

corn (Zea mays) [10] = assay: Test G Post-Emergence Protocol; details: Zea mays, post-emergence, 312 h; for plant injury at 15.625 g/ha: 15.625 g ai/ha, evaluated after 13 days (100=total damage to plant; 0=no damage to plant), read-out: Corn damage rating; for plant injury at 62.5 g/ha: 62.5 g ai/ha, read-out: Corn damage rating (100=total damage to plant; 0=no damage to plant); for plant injury at 62.5 g/ha / plant injury at 250 g/ha: evaluated after 13 days; for plant injury at 250 g/ha: 250 g ai/ha, read-out: damage to plant, Corn (100=total damage to plant; 0=no damage to plant)
Outline: as §2

[11] = tested on: ivy-leaved morning glory (Ipomoea hederacea); assay: Test G Post-Emergence Protocol; details: Ipomoea, post-emergence, 312 h; for pest or weed control at 15.625 g/ha: 15.625 g ai/ha, evaluated after 13 days (100=total damage to plant; 0=no damage to plant), read-out: Morningglory, Ivy-leaved damage rating; for pest or weed control at 62.5 g/ha: 62.5 g ai/ha, read-out: Morningglory, Ivy-leaved damage rating (100=total damage to plant; 0=no damage to plant); for pest or weed control at 62.5 g/ha / pest or weed control at 250 g/ha: evaluated after 13 days; for pest or weed control at 250 g/ha: 250 g ai/ha, read-out: damage to plant, Morningglory, Ivy-leaved (100=total damage to plant; 0=no damage to plant)
Outline: as §2

[12] = tested on: velvetleaf (Abutilon theophrasti); assay: Test G Post-Emergence Protocol; details: Abutilon theophrasti, post-emergence, 312 h; for pest or weed control at 15.625 g/ha: 15.625 g ai/ha, evaluated after 13 days (100=total damage to plant; 0=no damage to plant), read-out: Velvetleaf damage rating; for pest or weed control at 62.5 g/ha: 62.5 g ai/ha, read-out: Velvetleaf damage rating (100=total damage to plant; 0=no damage to plant); for pest or weed control at 62.5 g/ha / pest or weed control at 250 g/ha: evaluated after 13 days; for pest or weed control at 250 g/ha: 250 g ai/ha, read-out: damage to plant, Velvetleaf (100=total damage to plant; 0=no damage to plant)
Outline: as §2

| SMILES | pest or weed control at 15.625 g/ha [1] [%] | pest or weed control at 62.5 g/ha [1] [%] | pest or weed control at 250 g/ha [1] [%] | pest or weed control at 15.625 g/ha [2] [%] | pest or weed control at 62.5 g/ha [2] [%] | pest or weed control at 250 g/ha [2] [%] | pest or weed control at 15.625 g/ha [3] [%] | pest or weed control at 62.5 g/ha [3] [%] | pest or weed control at 250 g/ha [3] [%] | plant injury at 15.625 g/ha (corn (Zea mays) [4]) [%] | plant injury at 62.5 g/ha (corn (Zea mays) [4]) [%] | plant injury at 250 g/ha (corn (Zea mays) [4]) [%] | pest or weed control at 15.625 g/ha [5] [%] | pest or weed control at 250 g/ha [5] [%] | pest or weed control at 15.625 g/ha [6] [%] | pest or weed control at 62.5 g/ha [6] [%] | pest or weed control at 250 g/ha [6] [%] | pest or weed control at 15.625 g/ha [7] [%] | pest or weed control at 62.5 g/ha [7] [%] | pest or weed control at 250 g/ha [7] [%] | further results |
| --- | --- | --- | --- | --- | --- | --- | --- | --- | --- | --- | --- | --- | --- | --- | --- | --- | --- | --- | --- | --- | --- |
| CN1C[C@@H](c2ccc(C(F)(F)F)cc2)[C@H](C(=O)Nc2cnccn2)C1=O (racemic) [Compound 1572] | 0 | 0 | 0 | 0 | 0 | 0 | 0 | 0 | 0 | 0 | 0 | 0 | 0 | 0 | 0 | 0 | 0 | 0 | 0 | 20 | pest or weed control at 62.5 g/ha ([5]; 62.5 g ai/ha, 100=total damage to plant, 0=no damage to plant, read-out: plant damage rating, Morningglory, Ivy-leaved): 0%; pest or weed control at 15.625 g/ha [8]: 0%; pest or weed control at 62.5 g/ha [8]: 0%; pest or weed control at 250 g/ha [8]: 40%; pest or weed control at 15.625 g/ha [9]: 0%; pest or weed control at 62.5 g/ha [9]: 0%; pest or weed control at 250 g/ha [9]: 0%; plant injury at 15.625 g/ha (corn (Zea mays) [10]): 0%; plant injury at 62.5 g/ha (corn (Zea mays) [10]): 0%; plant injury at 250 g/ha (corn (Zea mays) [10]): 0%; pest or weed control at 15.625 g/ha [11]: 0%; pest or weed control at 62.5 g/ha [11]: 10%; pest or weed control at 250 g/ha [11]: 30%; pest or weed control at 15.625 g/ha [12]: 0%; pest or weed control at 62.5 g/ha [12]: 0%; pest or weed control at 250 g/ha [12]: 0% |
| CN1C[C@H](c2ccc(F)c(OCC(F)(F)F)c2)[C@@H](C(=O)Nc2ccccc2F)C1=O (racemic) [Compound 1456] | 0 | 0 | 90 | 60 | 80 | 90 | 20 | 60 | 80 | 0 | 0 | 40 | 0 | 40 | 0 | 0 | 40 | 0 | 30 | 40 | pest or weed control at 15.625 g/ha [8]: 50%; pest or weed control at 62.5 g/ha [8]: 60%; pest or weed control at 250 g/ha [8]: 70%; pest or weed control at 15.625 g/ha [9]: 10%; pest or weed control at 62.5 g/ha [9]: 10%; pest or weed control at 250 g/ha [9]: 20%; plant injury at 15.625 g/ha (corn (Zea mays) [10]): 10%; plant injury at 62.5 g/ha (corn (Zea mays) [10]): 20%; plant injury at 250 g/ha (corn (Zea mays) [10]): 60%; pest or weed control at 15.625 g/ha [11]: 30%; pest or weed control at 62.5 g/ha [11]: 30%; pest or weed control at 250 g/ha [11]: 20%; pest or weed control at 15.625 g/ha [12]: 0%; pest or weed control at 62.5 g/ha [12]: 20%; pest or weed control at 250 g/ha [12]: 20% |
